Measurements: paper PMC5384759 (ACS Chemical Neuroscience, 2016)
Where two headings read alike, the source gives them in different places. Each block holds one compound with its values, some of them ahead of it.

How the values were obtained:
[1] = CIT metabolism in placental microsomal preparations; type: in vitro ADME, mice; settings: E14 and E18, 500 ng/mL CIT, 2 h
[2] = type: in vivo, CD-1 mice
[3] = CIT metabolism in fetal liver microsomal preparations; type: in vitro ADME, mice; settings: 2 h incubation
[4] = type: in vivo, CD-1 mice; settings: for half-life / AUC: female, CD-1, mouse, ip; for AUC: area under the concentration-time curve
[5] = cited from earlier work
SERT = settings: read-out: inhibitory constant (Ki) of SERT-mediated 5-HT uptake; cited from earlier work
[6] = Ex vivo transplacental transfer of CIT and DCIT; type: in vitro ADME, mice
[7] = patients, racemic CIT; cited from earlier work
[8] = nonpregnant mice, fixed dose 0.6 mg CIT ip, serum
[9] = pregnant mice GD14, weight-adjusted dose 20 mg/kg CIT ip, maternal serum
[10] = pregnant mice GD18, weight-adjusted dose 20 mg/kg CIT ip, maternal serum
[11] = pregnant mice GD18FD, fixed dose 0.6 mg CIT ip, maternal serum

time of peak fetal serum CIT concentration following maternal drug injection ([2]; E14 and E18 fetuses, maternal 20 mg/kg CIT ip): 15 min
DCIT generation from fetal liver microsomes ([3]; E14, 500 ng/mL CIT): no measurable DCIT generation
increase in AUC in the GD18 group over the GD18FD dams ([4]; 20 mg/kg vs fixed 0.6 mg CIT ip, dose increased by 100%): 141%
half-life ([4]; maternal serum, 0.6 mg): 0.93 ± 0.06 h
AUC ([4]; maternal serum, 0.6 mg, pregnant mice GD18FD, fixed dose 0.6 mg CIT ip): 927 ± 28 ng·h/mL
half-life ([4]; maternal serum, 20 mg/kg): 1.08 ± 0.07 h
half-life ([4]; serum, 0.6 mg): 1.06 ± 0.04 h
AUC ([4]; serum, 0.6 mg, nonpregnant mice, fixed dose 0.6 mg CIT ip): 1230 ± 39 ng·h/mL
half-life ([4]; serum, 20 mg/kg): 1.05 ± 0.03 h
reduction in the AUC of serum CIT in GD18FD dams compared to nonpregnant mice ([4]; fixed dose 0.6 mg CIT ip): 25%
CIT absorption phase ([4]; nonpregnant mice, fixed dose 0.6 mg CIT ip): 1.67
C0, peak concentration [4, 8]: 2050 ± 36 ng/mL
CL, clearance [4, 8]: 486 ± 9 mL·h
VD, volume of distribution [4, 8]: 29.3 ± 2.3 mL
AUCdn, dose-normalized AUC [4, 9]: 1.45 ± 0.10 (ng × h/mL)μg
C0, peak concentration [4, 9]: 2278 ± 31 ng/mL
CL, clearance [4, 9]: 689 ± 15 mL·h
VD, volume of distribution [4, 9]: 41.7 ± 2.5 mL
AUCdn, dose-normalized AUC [4, 10]: 1.86 ± 0.20 (ng × h/mL)μg
C0, peak concentration [4, 10]: 2353 ± 33 ng/mL
VD, volume of distribution [4, 10]: 50.9 ± 2.0 mL
CIT absorption phase ([4]; pregnant mice GD18FD, fixed dose 0.6 mg CIT ip): 1.76
AUCdn, dose-normalized AUC [4, 11]: 1.48 ± 0.21 (ng × h/mL)μg
C0, peak concentration [4, 11]: 1667 ± 38 ng/mL
CL, clearance [4, 11]: 647 ± 20 mL·h
VD, volume of distribution [4, 11]: 36.0 ± 2.6 mL
increase in VD as gestation advanced from GD14 to GD18 ([4]; weight-adjusted dose 20 mg/kg CIT ip): 22%
SMILES: CN(C)CCCC1(c2ccc(F)cc2)OCc2cc(C#N)ccc21 (racemic) [CIT, (±)-citalopram]
CIT to DCIT metabolic capacity of placental microsomes [1]: no significant CIT to DCIT metabolic capacity
DCIT generation from fetal liver microsomes ([3]; E18, 500 ng/mL CIT): significant rate of CIT to DCIT conversion

time to peak DCIT concentration in fetal serum ([2]; E14, after maternal 20 mg/kg CIT ip): 1 h
time to peak DCIT concentration in fetal serum ([2]; E18, after maternal 20 mg/kg CIT ip): 2.5 h
DCIT in fetal eluate during placental perfusion with CIT (placental metabolism) ([6]; E18 placenta perfused with 500 ng/mL CIT, 10 min intervals over 120 min): not detected
transplacental transfer efficiency of DCIT relative to CIT (fold less efficient) ([6]; ex vivo perfusion, E18 placentas): ~2 fold
SMILES: CNCCCC1(c2ccc(F)cc2)OCc2cc(C#N)ccc21 (stereo not drawn) [DCIT, desmethylcitalopram]
partition coefficient [5]: 0.28
Ki (SERT): 14 nM
mean plasma S/R enantiomer ratio [7]: 0.7
